Assay results taken from patent publication US8278469B2, “17-hydroxy-17-pentafluoroethyl-estra-4,9(10)-dien-11-aryl derivatives, method of production thereof and use thereof for the treatment of diseases” (Bayer Pharma Aktiengesellschaft, priority 2009, dated 2012).
Where two headings read alike, the source gives them in different places.

How the values were obtained:
[1] = biological target: T1, human progesterone receptor B (PR-B) (Homo sapiens, UniProt P06401); test: Progesterone receptor-antagonistic action in stable transfectants of SK-N-MC cells with human PR-B and MTV-LUC reporter; type: cell-based; conditions: for Emax: read-out: Progesterone receptor B (PR-B) Efficacy
T1 construct: expressed in transfected cells; host or cells: SK-N-MC human neuroblastoma cells, stably transfected with pRChPR-B-neo and pMMTV-LUC
T1 sequence (P06401 1-933): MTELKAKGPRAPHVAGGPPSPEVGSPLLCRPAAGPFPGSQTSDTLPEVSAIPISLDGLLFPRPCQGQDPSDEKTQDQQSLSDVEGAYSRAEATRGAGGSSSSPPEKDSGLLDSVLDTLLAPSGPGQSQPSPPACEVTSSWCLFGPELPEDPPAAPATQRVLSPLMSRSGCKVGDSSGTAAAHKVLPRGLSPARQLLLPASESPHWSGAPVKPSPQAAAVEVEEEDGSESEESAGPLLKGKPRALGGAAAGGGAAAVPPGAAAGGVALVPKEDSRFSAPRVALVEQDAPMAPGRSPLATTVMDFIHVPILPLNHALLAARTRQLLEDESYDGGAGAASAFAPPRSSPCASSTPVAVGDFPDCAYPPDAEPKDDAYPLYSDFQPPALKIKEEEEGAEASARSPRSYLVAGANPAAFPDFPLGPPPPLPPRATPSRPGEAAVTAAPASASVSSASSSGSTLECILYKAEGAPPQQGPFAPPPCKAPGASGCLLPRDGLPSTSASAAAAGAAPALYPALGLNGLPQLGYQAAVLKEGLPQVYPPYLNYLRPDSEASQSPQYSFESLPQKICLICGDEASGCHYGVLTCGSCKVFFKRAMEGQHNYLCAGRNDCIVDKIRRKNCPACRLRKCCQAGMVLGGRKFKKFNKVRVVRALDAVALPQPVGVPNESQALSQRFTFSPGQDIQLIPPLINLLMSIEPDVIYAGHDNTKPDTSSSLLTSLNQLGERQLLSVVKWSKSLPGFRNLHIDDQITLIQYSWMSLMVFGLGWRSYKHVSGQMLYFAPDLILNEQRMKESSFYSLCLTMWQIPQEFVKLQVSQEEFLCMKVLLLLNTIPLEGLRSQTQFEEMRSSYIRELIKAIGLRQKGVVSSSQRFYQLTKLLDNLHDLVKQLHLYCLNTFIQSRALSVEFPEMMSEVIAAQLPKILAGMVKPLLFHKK
Method: (§1) Progesterone Receptor-Antagonistic Action in Stable Transfectants of Human Neuroblastoma Cells (SK-N-MC Cells) with the Human Progesterone A or Progesterone B Receptor and an MTV-LUC Reporter Construct
(§2) SK-N-MC cells (human neuroblastoma cells), which have been stably transfected with plasmids, which express the human progesterone receptor B (pRChPR-B-neo) or the human progesterone receptor A (pRChPR-A-neo) and a reporter construct (pMMTV-LUC), were incubated for 24 hours either in the absence (negative control) or in the presence of increasing amounts of the respective test compound (0.01 nmol/l, 0.1 nmol/l, 1 nmol/l, 10 nmol/l, 100 nmol/l and 1 μmol/l), in order to determine the agonistic efficacy. As positive control of reporter gene induction, the cells were treated with the synthetic gestagen promegestone (0.01 nmol/l, 0.1 nmol/l, 1 nmol/l, 10 nmol/l, 100 nmol/l and 1 μmol/l). For determination of the antagonistic activity, the cells were treated with 0.1 nmol/l promegestone and additionally with increasing amounts of the respective test compound (0.01 nmol/l, 0.1 nmol/l, 1 nmol/l, 10 nmol/l, 100 nmol/l and 1 μmol/l). The activity of the LUC reporter gene (LUC=luciferase) was determined in the cell lysates and was measured as RLU (relative light units). All measured values are given as percentage efficacy and as EC50 or IC50 concentrations.
(§3) 11β-(4-Acetylphenyl)-20,20,21,21,21-pentafluoro-17-hydroxy-19-nor-17α-pregna-4,9-dien-3-one and 20,20,21,21,21-pentafluoro-17-hydroxy-11β-[4-(hydroxyacetyl)phenyl]-19-nor-17α-pregna-4,9-dien-3-one, very potent and therefore preferred examples from WO98/34947 and WO2008/058767, were tested as comparative compounds along with the test compound.

[2] = biological target: T2, human progesterone receptor A (PR-A) (Homo sapiens, UniProt P06401); test: Progesterone receptor-antagonistic action in stable transfectants of SK-N-MC cells with human PR-A and MTV-LUC reporter; type: cell-based; conditions: for Emax: read-out: Progesterone receptor A (PR-A) Efficacy
T2 construct: expressed in transfected cells; host or cells: SK-N-MC human neuroblastoma cells, stably transfected with pRChPR-A-neo and pMMTV-LUC
T2 sequence (P06401 1-769 isoform P06401-2): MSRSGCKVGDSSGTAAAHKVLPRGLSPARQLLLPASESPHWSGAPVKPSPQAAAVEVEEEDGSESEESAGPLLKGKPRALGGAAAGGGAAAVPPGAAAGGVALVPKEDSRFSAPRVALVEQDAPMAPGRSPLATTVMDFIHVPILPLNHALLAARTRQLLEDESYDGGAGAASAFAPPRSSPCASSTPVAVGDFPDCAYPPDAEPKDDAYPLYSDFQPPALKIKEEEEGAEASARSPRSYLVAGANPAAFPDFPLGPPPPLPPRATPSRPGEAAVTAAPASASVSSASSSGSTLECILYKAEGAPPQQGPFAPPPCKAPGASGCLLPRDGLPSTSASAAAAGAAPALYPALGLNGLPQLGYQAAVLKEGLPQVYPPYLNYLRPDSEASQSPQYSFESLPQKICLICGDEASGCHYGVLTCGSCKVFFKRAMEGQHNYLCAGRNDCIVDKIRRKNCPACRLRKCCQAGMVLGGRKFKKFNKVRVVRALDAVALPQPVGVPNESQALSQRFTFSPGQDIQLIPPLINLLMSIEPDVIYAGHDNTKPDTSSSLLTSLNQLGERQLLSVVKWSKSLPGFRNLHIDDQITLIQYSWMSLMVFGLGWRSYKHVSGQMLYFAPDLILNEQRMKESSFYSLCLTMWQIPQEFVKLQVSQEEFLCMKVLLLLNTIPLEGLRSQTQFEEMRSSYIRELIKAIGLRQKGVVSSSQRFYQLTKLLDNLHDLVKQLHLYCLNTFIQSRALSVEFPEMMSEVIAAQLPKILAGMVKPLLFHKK
Method: as §1, §2, §3

[3] = antagonistic activity against 0.1 nmol/l promegestone, SK-N-MC cells, 24 hours, LUC reporter, read-out: Progesterone receptor B (PR-B) Potency IC50
[4] = antagonistic efficacy against 0.1 nmol/l promegestone, SK-N-MC cells, 24 hours
[5] = antagonistic activity against 0.1 nmol/l promegestone, SK-N-MC cells, 24 hours, LUC reporter, read-out: Progesterone receptor A (PR-A) Potency IC50

| SMILES | IC50 [1, 3] | Emax [1, 4] | IC50 [2, 5] | Emax [2, 4] | IC50 [1] | IC50 [2] | Emax ([1]; SK-N-MC, 24 h) | Emax ([2]; SK-N-MC, 24 h) |
| --- | --- | --- | --- | --- | --- | --- | --- | --- |
| CCS(=O)(=O)c1ccc([C@H]2C[C@@]3(C)C(CC[C@@]3(O)C(F)(F)C(F)(F)F)C3CCC4=CC(=O)CCC4=C32)cc1 (stereo partly drawn) [Example 5, (11β,17β)-11-[4-(ethylsulphonyl)phenyl]-17-hydroxy-17-(pentafluoroethyl)estra-4,9-dien-3-one] | 0.09 nM | 100% | 0.1 nM | 100% |  |  |  |  |
| Cc1ccc(S(=O)(=O)N=S(C)(=O)c2ccc([C@H]3C[C@@]4(C)C(CC[C@@]4(O)C(F)(F)C(F)(F)F)C4CCC5=CC(=O)CCC5=C43)cc2)cc1 (mixture of isomers) [Example 7, N-[{4-[(11β,17β)-17-hydroxy-3-oxo-17-(pentafluoroethyl)estra-4,9-dien-11-yl]phenyl}(RS)(methyl)oxido-λ^6-sulphanylidene]-4-methylbenzene sulphonamide] |  | 100% |  | 100% | 0.8 nM | 1 nM |  |  |
| CC(=O)c1ccc(C2CC3(C)C(CCC3(O)C(F)(F)C(F)(F)F)C3CCC4=CC(=O)CCC4=C23)cc1 (stereo not drawn) [11β-(4-Acetylphenyl)-20,20,21,21,21-pentafluoro-17-hydroxy-19-nor-17α-pregna-4,9-dien-3-one, reference compound] |  | 100% |  | 100% |  |  |  |  |
| CSc1ccc(-c2ccc([C@H]3C[C@@]4(C)[C@@H](CC[C@@]4(O)C(F)(F)C(F)(F)F)[C@@H]4CCC5=CC(=O)CCC5=C43)cc2)cc1 [Example 9, (11β,17β)-17-Hydroxy-11-[4′-(methylsulphanyl)biphenyl-4-yl]-17-(pentafluoroethyl)estra-4,9-dien-3-one] |  | 100% |  | 100% |  |  |  |  |
| C[C@]12C[C@H](c3ccc(SCc4ccccc4)cc3)C3=C4CCC(=O)C=C4CCC3C1CC[C@@]2(O)C(F)(F)C(F)(F)F (stereo partly drawn) [Example 6, (11β,17β)-11-[4-(benzylsulphanyl)phenyl]-17-hydroxy-17-(pentafluoroethyl)estra-4,9-dien-3-one] | 0.23 nM | 100% | 0.2 nM | 100% |  |  |  |  |
| C[S+]([O-])c1ccc([C@H]2C[C@@]3(C)[C@@H](CC[C@@]3(O)C(F)(F)C(F)(F)F)[C@@H]3CCC4=CC(=O)CCC4=C32)cc1 (mixture of isomers) [Example 3, (11β,17β)-17-Hydroxy-11-{4-[(RS)-methylsulphinyl]phenyl}-17-(pentafluoroethyl)estra-4,9-dien-3-one] | 0.12 nM |  | 0.11 nM |  |  |  | 100% | 100% |
| C[C@]12C[C@H](c3ccc(S(C)(=N)=O)cc3)C3=C4CCC(=O)C=C4CCC3C1CC[C@@]2(O)C(F)(F)C(F)(F)F (stereo partly drawn) [Example 8, (11β,17β)-17-Hydroxy-11-[4-(RS-methylsulphonimidoyl)phenyl]-17-(pentafluoroethyl)estra-4,9-dien-3-one] | 0.9 nM |  | 0.9 nM |  |  |  | 100% | 100% |
| Cc1ccc(S(=O)(=O)N=S(C)(=O)c2ccc(-c3ccc([C@H]4C[C@@]5(C)C(CC[C@@]5(O)C(F)(F)C(F)(F)F)C5CCC6=CC(=O)CCC6=C54)cc3)cc2)cc1 (mixture of isomers) [Example 11, N-[{4′-[(11β,17β)-17-hydroxy-3-oxo-17-(pentafluoroethyl)estra-4,9-dien-11-yl]biphenyl-4-yl}(RS)(methyl)oxido-λ^6-sulphanylidene]-4-methylbenzene sulphonamide] | 0.01 nM | 100% | 0.01 nM | 100% |  |  |  |  |
| C[C@]12C[C@H](c3ccc(C(=O)CO)cc3)C3=C4CCC(=O)C=C4CC[C@H]3[C@@H]1CC[C@@]2(O)C(F)(F)C(F)(F)F [20,20,21,21,21-pentafluoro-17-hydroxy-11β-[4-(hydroxyacetyl)phenyl]-19-nor-17α-pregna-4,9-dien-3-one, reference compound] |  |  |  |  |  |  | 100% | 100% |
| CCSc1ccc([C@H]2C[C@@]3(C)C(CC[C@@]3(O)C(F)(F)C(F)(F)F)C3CCC4=CC(=O)CCC4=C32)cc1 (stereo partly drawn) [Example 2, (11β,17β)-11-[4-(ethylsulphanyl)phenyl]-17-hydroxy-17-(pentafluoroethyl)estra-4,9-dien-3-one] |  | 100% |  | 100% |  |  |  |  |

More lines, main results first:

| IC50 [1, 3] | Emax [1, 4] | IC50 [2, 5] | Emax [2, 4] | SMILES | IC50 [1] | IC50 [2] | Emax ([1]; SK-N-MC, 24 h) | Emax ([2]; SK-N-MC, 24 h) |
| --- | --- | --- | --- | --- | --- | --- | --- | --- |
|  | 100% |  | 100% | CN(C)S(=O)(=O)c1ccc(-c2ccc([C@H]3C[C@@]4(C)[C@@H](CC[C@@]4(O)C(F)(F)C(F)(F)F)[C@@H]4CCC5=CC(=O)CCC5=C43)cc2)cc1 [Example 14, 4′-[(11β,17β)-17-hydroxy-3-oxo-17-(pentafluoroethyl)estra-4,9-dien-11-yl]-N,N-dimethylbiphenyl-4-sulphonamide] |  |  |  |  |
|  | 100% |  | 100% | CN(C)S(=O)(=O)c1ccc([C@H]2C[C@@]3(C)[C@@H](CC[C@@]3(O)C(F)(F)C(F)(F)F)[C@@H]3CCC4=CC(=O)CCC4=C32)cc1 [Example 15, 4-[(11β,17β)-17-Hydroxy-3-oxo-17-(pentafluoroethyl)estra-4,9-dien-11-yl]-N,N-dimethylbenzene sulphonamide] |  |  |  |  |
| 0.08 nM | 100% | 0.08 nM | 100% | C[C@]12C[C@H](c3ccc(-c4ccc(S(C)(=N)=O)cc4)cc3)C3=C4CCC(=O)C=C4CCC3C1CC[C@@]2(O)C(F)(F)C(F)(F)F (stereo partly drawn) [Example 12, (11β,17β)-17-hydroxy-11-[4′-(RS-methylsulphonimidoyl)biphenyl-4-yl]-17-(pentafluoroethyl)estra-4,9-dien-3-one] |  |  |  |  |
| 0.072 nM | 100% | 0.072 nM | 100% | C[C@]12C[C@H](c3ccc(-c4ccc(S)cc4)cc3)C3=C4CCC(=O)C=C4CC[C@H]3[C@@H]1CC[C@@]2(O)C(F)(F)C(F)(F)F [Example 13, (11β,17β)-17-hydroxy-17-(pentafluoroethyl)-11-(4′-sulphanylbiphenyl-4-yl)estra-4,9-dien-3-one] |  |  |  |  |
